Where two headings read alike, the source gives them in different places. Non-standard residues stand in square brackets, D forms with d. Residues, ends and D or L forms follow the SMILES beside them. *: point of attachment. Adamantane1carbonyl = O=C(C12CC3CC(CC(C3)C1)C2)*; Hexenoyl(2E,4S-Me) = CC[C@H](C)/C=C/C(=O)*; Leu(3R-OH) = CC(C)[C@@H](O)[C@H](N)C(=O)O; NH((S)CH(Me)CH2NMe2) = C[C@@H](CN(C)C)N*; Benzoyl(4-OMe) = COc1ccc(C(=O)*)cc1; Gly(octyl) = CCCCCCCC[C@H](N)C(=O)O; Piperazinyl(4-Me) = CN1CCN(*)CC1; Pyrrole2CO = O=C(c1ccc[nH]1)*; X20 = O=C(c1ccc2[nH]ccc2c1)*; X15 = O=C(c1ccc2cccnc2c1)*; X21 = O=C(c1ccc2ocnc2c1)*; X4 = O=C(C1CCc2ccccc2C1)*; Aib = CC(C)(N)C(=O)O; Bz = O=C(c1ccccc1)*; βAla = NCCC(=O)O
Key:
[1] = test system: Plasmodium falciparum; test: 3H-hypoxanthine incorporation assay against Plasmodium falciparum; type: cell-based; details: In vitro inhibition, read-out: P.falc NF5
Description: (§1) Tests were done in triplicate.
IC50 values were calculated by linear interpolation.

[2] = test system: intracellular Leishmania donovani (L.don. InMac); test: Intracellular Leishmania donovani assay (L.don. InMac); type: cell-based; details: In vitro inhibition
From the text: as §1

[3] = test system: Axenically grown Leishmania donovani amastigotes (strain MHOM/ET/67/L82); test: Axenic Leishmania donovani amastigote resazurin assay; type: cell-based; details: In vitro inhibition, read-out: L.don. ax
In short: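 Strain MHOM/ET/67/L82 amastigotes grown axenically and tested in triplicate by resazurin assay. Plates developed 2-4 hours, fluorescence read at 536 nm excitation/588 nm emission and expressed as percentage of negative control.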

[4] = test system: Trypanosoma brucei rhodesiense (STIB 900 strain); test: Alamar Blue assay against Trypanosoma brucei rhodesiense grown in axenic medium; type: cell-based; details: In vitro inhibition, read-out: T.b.rhod.
In short: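 T. b. rhodesiense STIB 900 cultured in axenic medium and exposed to samples in an Alamar Blue viability assay, run in triplicate. IC50 calculated from the readout; melarsoprol served as reference drug.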

[5] = test system: Trypanosoma cruzi trypomastigote forms (Tulahuen strain); test: Intracellular Trypanosoma cruzi assay in L6-cells, beta-galactosidase/CPRG readout; type: cell-based; details: In vitro inhibition, read-out: T.cruzi.
In short: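 L6 rat myoblasts infected with Tulahuen C2C4 LacZ T. cruzi; after incubation, CPRG/Nonidet substrate added and colour developed 2–6 h. Absorbance at 540 nm; IC50 calculated; triplicate tests.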

[6] = Cytotoxicity assay on L6-cells (Alamar Blue); details: rat, Cytotox L6, Cytotoxicity against rat myoblast cells (L6)

IC50 ([3]; axenic Leishmania donovani)	Compound	IC50 [1]	IC50 [2]	IC50 [3]	IC50 [4]	IC50 [5]	IC50 at 70 h [6]
–	CCCCCCCC[C@H](NC(=O)[C@@H]1CCCN1C(=O)c1ccc[nH]1)C(=O)N[C@@H](CC(C)C)C(=O)NC(C)(C)C(=O)N[C@@H](CC(C)C)C(=O)N[C@@H](CC(C)C)C(=O)NC(C)(C)C(=O)NC(C)(C)C(=O)NCCC(=O)N[C@@H](C)CN(C)C [Compound 5939, (2S)-N-[(1S)-1-[(1-{[(1S)-1-{[(1S)-1-{[1-({1-[(2-{[(2S)-1-(dimethylamino)propan-2-yl]carbamoyl}ethyl)carbamoyl]-1-methylethyl}carbamoyl)-1-methylethyl]carbamoyl}-3-methylbutyl]carbamoyl}-3-methylbutyl]carbamoyl}-1-methylethyl)carbamoyl]-3-methylbutyl]-2-{[(2S)-1-(1H-pyrrole-2-carbonyl)pyrrolidm-2-yl]formamido}decanamide] (Pyrrole2CO-P[Gly(octyl)]L[Aib]LL[Aib][Aib][βAla]-{NH((S)CH(Me)CH2NMe2)})	36200 nM	209 nM	36000 nM	0.1 nM	42500 nM	–
–	CCCCCCCC[C@H](NC(=O)[C@@H]1CCCN1C(=O)c1ccc2ocnc2c1)C(=O)N[C@@H](CC(C)C)C(=O)NC(C)(C)C(=O)N[C@@H](CC(C)C)C(=O)N[C@@H](CC(C)C)C(=O)NC(C)(C)C(=O)NC(C)(C)C(=O)NCCC(=O)N[C@@H](C)CN(C)C [Compound 5937] (X21-P[Gly(octyl)]L[Aib]LL[Aib][Aib][βAla]-{NH((S)CH(Me)CH2NMe2)})	27600 nM	58.5 nM	21.2 nM	43500 nM	45.4 nM	–
–	CCCCCCCC[C@H](NC(=O)[C@@H]1CCCN1C(=O)c1ccc2[nH]ccc2c1)C(=O)N[C@@H](CC(C)C)C(=O)NC(C)(C)C(=O)N[C@@H](CC(C)C)C(=O)N[C@@H](CC(C)C)C(=O)NC(C)(C)C(=O)NC(C)(C)C(=O)NCCC(=O)N[C@@H](C)CN(C)C [Compound 5911, (2S)-N-[(1S)-1-[(1-{[(1S)-1-{[(1S)-1-{[1-({1-[(2-{[(2S)-1-(dimethylamino)propan-2-yl]carbamoyl}ethyl)carbamoyl]-1-methylethyl}carbamoyl)-1-methylethyl]carbamoyl}-3-methylbutyl]carbamoyl}-3-methylbutyl]carbamoyl}-1-methylethyl)carbamoyl]-3-methylbutyl]-2-{[(2S)-1-(1H-indole-5-carbonyl)pyrrolidin-2-yl]formamido}decanamide] (X20-P[Gly(octyl)]L[Aib]LL[Aib][Aib][βAla]-{NH((S)CH(Me)CH2NMe2)})	42500 nM	34.8 nM	14.4 nM	25600 nM	34 nM	–
–	CCCCCCCC[C@H](NC(=O)[C@@H]1CCCN1C(=O)c1ccc2cccnc2c1)C(=O)N[C@@H](CC(C)C)C(=O)NC(C)(C)C(=O)N[C@@H](CC(C)C)C(=O)N[C@@H](CC(C)C)C(=O)NC(C)(C)C(=O)NC(C)(C)C(=O)NCCC(=O)N[C@@H](C)CN(C)C [Compound 5938, (2S)-N-[(1S)-1-[(1-{[(1S)-1-{[(1S)-1-{[1-({1-[(2-{[(2S)-1-(dimethylamino)propan-2-yl]carbamoyl}ethyl)carbamoyl]-1-methylethyl}carbamoyl)-1-methylethyl]carbamoyl}-3-methylbutyl]carbamoyl}-3-methylbutyl]carbamoyl}-1-methylethyl)carbamoyl]-3-methylbutyl]-2-{[(2S)-1-(quinoline-7-carbonyl)pyrrolidin-2-yl]formamido}decanamide] (X15-P[Gly(octyl)]L[Aib]LL[Aib][Aib][βAla]-{NH((S)CH(Me)CH2NMe2)})	13200 nM	37.8 nM	42400 nM	0.5 nM	42400 nM	–
–	CCCCCCCC[C@H](NC(=O)[C@@H]1CCCN1C(=O)c1ccc(OC)cc1)C(=O)N[C@@H](CC(C)C)C(=O)NC(C)(C)C(=O)N[C@@H](CC(C)C)C(=O)N[C@@H](CC(C)C)C(=O)NC(C)(C)C(=O)NC(C)(C)C(=O)NCCC(=O)N[C@@H](C)CN(C)C [Compound 5912, (2S)-N-[(1S)-1-[(1-{[(1S)-1-{[(1S)-1-{[1-({1-[(2-{[(2S)-1-(dimethylamino)propan-2-yl]carbamoyl}ethyl)carbamoyl]-1-methylethyl}carbamoyl)-1-methylethyl]carbamoyl}-3-methylbutyl]carbamoyl}-3-methylbutyl]carbamoyl}-1-methylethyl)carbamoyl]-3-methylbutyl]-2-{[(2S)-1-(4-methoxybenzoyl)pyrrolidin-2-yl]formamido}decanamide] ({Benzoyl(4-OMe)}-P[Gly(octyl)]L[Aib]LL[Aib][Aib][βAla]-{NH((S)CH(Me)CH2NMe2)})	20900 nM	42600 nM	41400 nM	0.3 nM	17800 nM	–
–	CCCCCCCC[C@H](NC(=O)[C@@H]1CCCN1C(=O)c1ccccc1)C(=O)N[C@@H](CC(C)C)C(=O)NC(C)(C)C(=O)N[C@@H](CC(C)C)C(=O)N[C@@H](CC(C)C)C(=O)NC(C)(C)C(=O)NC(C)(C)C(=O)NCCC(=O)N[C@@H](C)CN(C)C [Compound 5649, (2S)-2-{[(2S)-1-benzoylpyrrolidin-2-yl]formamido}-N-[(1S)-1-[(1-{[(1S)-1-{[(1S)-1-{[1-({1-[(2-{[(2S)-1-(dimethylamino)propan-2-yl]carbamoyl}ethyl)carbamoyl]-1-methylethyl}carbamoyl)-1-methylethyl]carbamoyl}-3-methylbutyl]carbamoyl}-3-methylbutyl]carbamoyl}-1-methylethyl)carbamoyl]-3-methylbutyl]decanamide] (Bz-P[Gly(octyl)]L[Aib]LL[Aib][Aib][βAla]-{NH((S)CH(Me)CH2NMe2)})	2.1 nM	27.2 nM	3.5 nM	0.7 nM	8.8 nM	–
–	CCCCCCCC[C@H](NC(=O)[C@@H]1CCCN1C(=O)C1CCc2ccccc2C1)C(=O)N[C@@H](CC(C)C)C(=O)NC(C)(C)C(=O)N[C@@H](CC(C)C)C(=O)N[C@@H](CC(C)C)C(=O)NC(C)(C)C(=O)NC(C)(C)C(=O)NCCC(=O)N[C@@H](C)CN(C)C (stereo partly drawn) [Compound 5910, (2S)-N-[(1S)-1-[(1-{[(1S)-1-{[(1S)-1-{[1-({1-[(2-{[(2S)-1-(dimethylamino)propan-2-yl]carbamoyl}ethyl)carbamoyl]-1-methylethyl}carbamoyl)-1-methylethyl]carbamoyl}-3-methylbutyl]carbamoyl}-3-methylbutyl]carbamoyl}-1-methylethyl)carbamoyl]-3-methylbutyl]-2-{[(2S)-1-(1,2,3,4-tetrahydronaphthalene-2-carbonyl)pyrrolidin-2-yl]formamido}decanamide] (X4-P[Gly(octyl)]L[Aib]LL[Aib][Aib][βAla]-{NH((S)CH(Me)CH2NMe2)})	42600 nM	42600 nM	42600 nM	24800 nM	41.1 nM	–
–	CCCCCCCC[C@H](NC(=O)[C@@H]1CCCN1C(=O)C12CC3CC(CC(C3)C1)C2)C(=O)N[C@@H](CC(C)C)C(=O)NC(C)(C)C(=O)N[C@@H](CC(C)C)C(=O)N[C@@H](CC(C)C)C(=O)NC(C)(C)C(=O)NC(C)(C)C(=O)NCCC(=O)N[C@@H](C)CN(C)C [Compound 5770, (2S)-2-{[(2S)-1-(adamantane-1-carbonyl)pyrrolidin-2-yl]formamido}-N-[(1S)-1-[(1-{[(1S)-1-{[(1S)-1-{[1-({1-[(2-{[(2S)-1-(dimethylamino)propan-2-yl]carbamoyl}ethyl)carbamoyl]-1-methylethyl}carbamoyl)-1-methylethyl]carbamoyl}-3-methylbutyl]carbamoyl}-3-methylbutyl]carbamoyl}-1-methylethyl)carbamoyl]-3-methylbutyl]decanamide] (Adamantane1carbonyl-P[Gly(octyl)]L[Aib]LL[Aib][Aib][βAla]-{NH((S)CH(Me)CH2NMe2)})	3.3 nM	338 nM	1 nM	0.6 nM	101 nM	–
118 nM	CCCCCCCCCCCCCCCCOP(=O)([O-])OCC[N+](C)(C)C [Miltefosine]	–	1200 nM	–	–	–	–
–	CCCCCCCC[C@H](NC(=O)[C@@H]1CCCN1C(=O)/C=C/[C@@H](C)CC)C(=O)N[C@H](C(=O)NC(C)(C)C(=O)N[C@@H](CC(C)C)C(=O)N[C@@H](CC(C)C)C(=O)NC(C)(C)C(=O)NC(C)(C)C(=O)NCCC(=O)N1CCN(C)CC1)[C@H](O)C(C)C [Compound 5571, (2S)-N-[(1S,2R)-2-hydroxy-3-methyl-1-[(1-methyl-1-{[(1S)-3-methyl-1-{[(1S)-3-methyl-1-({1-methyl-1-[(1-methyl-1-{[3-(4-methylpiperazin-1-yl)-3-oxopropyl]carbamoyl}ethyl)carbamoyl]ethyl}carbamoyl)butyl]carbamoyl}butyl]carbamoyl}ethyl)carbamoyl]butyl]-2-{[(2S)-1-[(2E,4S)-4-methylhex-2-enoyl]pyrrolidin-2-yl]formamido}decanamide] ({Hexenoyl(2E,4S-Me)}-P[Gly(octyl)][Leu(3R-OH)][Aib]LL[Aib][Aib][βAla]-{Piperazinyl(4-Me)})	125 nM	–	398 nM	214 nM	2930 nM	2630 nM

Source: EP3345917A1, “ANTIPROTOZOAL COMPOUNDS” (Bacoba AG, priority 2017, dated 2018)
